Reference: patent US8349826B2, “Oxazolidinone derivatives” (Actelion Pharmaceuticals Ltd., priority 2008, dated 2013)
In brackets after ≈: the same amount, converted by molar mass.

test system: Moraxella catarrhalis A894; assay: MIC by broth microdilution (cation-adjusted Mueller-Hinton Broth, CLSI M7-A7); assay type: cell-based
Protocol: Minimal inhibitory concentrations (MICS; mg/l) were determined in cation-adjusted Mueller-Hinton Broth by a microdilution procedure following the description given in “Procedures for Dilution Antimicrobial Susceptibility Tests for Bacteria that Grow Aerobically”, Approved standard, 7th ed., Clinical and Laboratory Standards Institute (CLSI) Document M7-A7, Wayne, Pa., USA, 2006. All Example compounds were tested against several Gram positive and Gram negative bacteria such as S. aureus, E. faecalis, S. pneumoniae, M. catarrhalis, A. baumanii, E. coli or P. aeruginosa.

Row | Molecule | MIC | MIC Moraxella catarrhalis A894
1 | COc1ccc2ncc(=O)n(CCC(=O)NC[C@@H]3CN(c4ccc5c(c4)NC(=O)CS5)C(=O)O3)c2c1 [Example 6, 3-(7-methoxy-2-oxo-2H-quinoxalin-1-yl)-N-[(R)-2-oxo-3-(3-oxo-3,4-dihydro-2H-benzo[1,4]thiazin-6-yl)-oxazolidin-5-ylmethyl]-propionamide] | ≤ 0.031 µg/mL | –
2 | COc1ccc2ncc(=O)n(CCCNC[C@@H]3CN(c4ccc(C)c(F)c4)C(=O)O3)c2n1 [Example 29, 4-(3-{[(R)-3-(3-fluoro-4-methyl-phenyl)-2-oxo-oxazolidin-5-ylmethyl]-amino}-propyl)-6-methoxy-4H-pyrido[2,3-b]pyrazin-3-one] | 0.063 µg/mL (≈ 0.143 µM) | –
3 | COc1ccc2ccc(=O)n(CCC(=O)NC[C@@H]3CN(c4ccc5c(c4)NC(=O)CS5)C(=O)O3)c2c1 [Example 11, 3-(7-methoxy-2-oxo-2H-quinolin-1-yl)-N-[(R)-2-oxo-3-(3-oxo-3,4-dihydro-2H-benzo[1,4]thiazin-6-yl)-oxazolidin-5-ylmethyl]-propionamide] | ≤ 0.031 µg/mL | –
4 | COc1ccc2ncc(=O)n(C3CN(CCC[C@@H]4CN(c5ccc6c(c5)NC(=O)CS6)C(=O)O4)C3)c2n1 [Example 23, 6-methoxy-4-(1-{3-[(R)-2-oxo-3-(3-oxo-3,4-dihydro-2H-benzo[1,4]thiazin-6-yl)-oxazolidin-5-yl]-propyl}-azetidin-3-yl)-4H-pyrido[2,3-b]pyrazin-3-one] | ≤ 0.031 µg/mL | –
5 | COc1ccc2ccc(=O)n(C[C@@H](O)CNC[C@@H]3CN(c4cc5c(cc4F)SCC(=O)N5)C(=O)O3)c2c1 [Example 16, 7-fluoro-6-((R)-5-{[(S)-2-hydroxy-3-(7-methoxy-2-oxo-2H-quinolin-1-yl)-propylamino]-methyl}-2-oxo-oxazolidin-3-yl)-4H-benzo[1,4]thiazin-3-one] | ≤ 0.031 µg/mL | –
6 | COc1ccc2ncc(=O)n(C3CN(CC[C@@H]4CN(c5ccc6c(c5)NC(=O)CS6)C(=O)O4)C3)c2n1 [Example 22, 6-methoxy-4-(1-{2-[(R)-2-oxo-3-(3-oxo-3,4-dihydro-2H-benzo[1,4]thiazin-6-yl)-oxazolidin-5-yl]-ethyl}-azetidin-3-yl)-4H-pyrido[2,3-b]pyrazin-3-one] | ≤ 0.031 µg/mL | –
7 | COc1ccc2ccc(=O)n(C[C@@H](O)CNC[C@@H]3CN(c4ccc5c(c4)NC(=O)CS5)C(=O)O3)c2c1 [Example 15, 6-((R)-5-{[(S)-2-hydroxy-3-(7-methoxy-2-oxo-2H-quinolin-1-yl)-propylamino]-methyl}-2-oxo-oxazolidin-3-yl)-4H-benzo[1,4]thiazin-3-one] | ≤ 0.031 µg/mL | –
8 | COc1ccc2c(c1)N(CCCNC[C@@H]1CN(c3ccc4c(c3)OCCO4)C(=O)O1)C(=O)CC2 [Example 28, 1-(3-{[(R)-3-(2,3-dihydro-benzo[1,4]dioxin-6-yl)-2-oxo-oxazolidin-5-ylmethyl]-amino}-propyl)-7-methoxy-3,4-dihydro-1H-quinolin-2-one] | 1 µg/mL (≈ 2.14 µM) | –
9 | COc1ccc2ccc(=O)n(C3CN(CCC4CN(c5ccc6c(c5)NC(=O)CS6)C(=O)O4)C3)c2c1 (racemic) [Example 5, (RS)-6-(5-{2-[3-(7-methoxy-2-oxo-2H-quinolin-1-yl)-azetidin-1-yl]-ethyl}-2-oxo-oxazolidin-3-yl)-4H-benzo[1,4]thiazin-3-one] | 0.25 µg/mL (≈ 0.494 µM) | –
10 | rac-4-(2-{2-[3-(2,3-dihydro-[1,4]dioxino[2,3-b]pyridin-6-yl)-2-oxo-oxazolidin-5-yl]-ethylamino}-ethyl)-6-methoxy-4H-pyrido[2,3-b]pyrazin-3-one [Example 32] | – | 1 µg/mL
11 | COc1ccc2ccc(=O)n(CCC(=O)NC[C@@H]3CN(c4ccc5c(c4)OCCO5)C(=O)O3)c2c1 [Example 7, N-[(R)-3-(2,3-dihydro-benzo[1,4]dioxin-6-yl)-2-oxo-oxazolidin-5-ylmethyl]-3-(7-methoxy-2-oxo-2H-quinolin-1-yl)-propionamide] | 0.5 µg/mL (≈ 1.04 µM) | –
12 | COc1ccc2ccc(=O)n(C[C@H](O)CNC[C@@H]3CN(c4ccc5c(c4)NC(=O)CS5)C(=O)O3)c2c1.Cl [Example 14, 6-((R)-5-{[(R)-2-hydroxy-3-(7-methoxy-2-oxo-2H-quinolin-1-yl)-propylamino]-methyl}-2-oxo-oxazolidin-3-yl)-4H-benzo[1,4]thiazin-3-one hydrochloride] | ≤ 0.031 µg/mL | –
13 | COc1ccc2ncc(=O)n(CCNCC[C@@H]3CN(c4ccc5c(c4)NC(=O)CO5)C(=O)O3)c2n1 [Example 21, 6-methoxy-4-(2-{2-[(R)-2-oxo-3-(3-oxo-3,4-dihydro-2H-benzo[1,4]oxazin-6-yl)-oxazolidin-5-yl]-ethylamino}-ethyl)-4H-pyrido[2,3-b]pyrazin-3-one] | ≤ 0.031 µg/mL | –
14 | COc1ccc2ncc(=O)n(CCCNC[C@@H]3CN(c4ccc5c(c4)OCCO5)C(=O)O3)c2n1 [Example 18, 4-(3-{[(R)-3-(2,3-dihydro-benzo[1,4]dioxin-6-yl)-2-oxo-oxazolidin-5-ylmethyl]-amino}-propyl)-6-methoxy-4H-pyrido[2,3-b]pyrazin-3-one] | ≤ 0.031 µg/mL | –
15 | COc1ccc2ncc(=O)n(CCC(=O)NC[C@@H]3CN(c4ccc5c(c4)OCCO5)C(=O)O3)c2c1 [Example 10, N-[(R)-3-(2,3-dihydro-benzo[1,4]dioxin-6-yl)-2-oxo-oxazolidin-5-ylmethyl]-3-(7-methoxy-2-oxo-2H-quinoxalin-1-yl)-propionamide] | 0.125 µg/mL (≈ 0.26 µM) | –
16 | COc1ccc2nc(C)c(=O)n(CCCNC[C@@H]3CN(c4ccc5c(c4)NC(=O)CS5)C(=O)O3)c2n1 [Example 35, 6-methoxy-2-methyl-4-(3-{[(R)-2-oxo-3-(3-oxo-3,4-dihydro-2H-benzo[1,4]thiazin-6-yl)-oxazolidin-5-ylmethyl]-amino}-propyl)-4H-pyrido[2,3-b]pyrazin-3-one] | ≤ 0.016 µg/mL | –
17 | COc1ccc2ccc(=O)n(C[C@H](O)CNC[C@@H]3CN(c4ccc5c(c4)NC(=O)CO5)C(=O)O3)c2c1.Cl [Example 13, 6-((R)-5-{[(R)-2-hydroxy-3-(7-methoxy-2-oxo-2H-quinolin-1-yl)-propylamino]-methyl}-2-oxo-oxazolidin-3-yl)-4H-benzo[1,4]oxazin-3-one hydrochloride] | ≤ 0.031 µg/mL | –
18 | COc1ccc2ncc(=O)n(C[C@H](O)CNC[C@@H]3CN(c4ccc5c(c4)NC(=O)CS5)C(=O)O3)c2n1 [Example 25, 4-((R)-2-hydroxy-3-{[(R)-2-oxo-3-(3-oxo-3,4-dihydro-2H-benzo[1,4]thiazin-6-yl)-oxazolidin-5-ylmethyl]-amino}-propyl)-6-methoxy-4H-pyrido[2,3-b]pyrazin-3-one] | ≤ 0.031 µg/mL | –
19 | COc1ccc2ccc(=O)n(CCCNC[C@@H]3CN(c4ccc5c(c4)OCCO5)C(=O)O3)c2c1 [Example 3, 1-(3-{[(R)-3-(2,3-dihydro-benzo[1,4]dioxin-6-yl)-2-oxo-oxazolidin-5-ylmethyl]-amino}-propyl)-7-methoxy-1H-quinolin-2-one] | ≤ 0.031 µg/mL | –
20 | COc1ccc2ncc(=O)n(CCCNC[C@@H]3CN(c4ccc5c(c4)NC(=O)CO5)C(=O)O3)c2n1 [Example 19, 6-methoxy-4-(3-{[(R)-2-oxo-3-(3-oxo-3,4-dihydro-2H-benzo[1,4]oxazin-6-yl)-oxazolidin-5-ylmethyl]-amino}-propyl)-4H-pyrido[2,3-b]pyrazin-3-one] | ≤ 0.031 µg/mL | –
21 | COc1ccc2ncc(=O)n(CC(N)C(=O)NC[C@@H]3CN(c4ccc5c(c4)OCCO5)C(=O)O3)c2c1 (mixture of isomers) [Example 12, (RS)-2-amino-N-[(R)-3-(2,3-dihydro-benzo[1,4]dioxin-6-yl)-2-oxo-oxazolidin-5-ylmethyl]-3-(7-methoxy-2-oxo-2H-quinoxalin-1-yl)-propionamide] | 1 µg/mL | –
22 | COc1ccc2ncc(=O)n(C3CN(C[C@@H]4CN(c5ccc6c(c5)NC(=O)CS6)C(=O)O4)C3)c2n1 [Example 30, 6-methoxy-4-{1-[(R)-2-oxo-3-(3-oxo-3,4-dihydro-2H-benzo[1,4]thiazin-6-yl)-oxazolidin-5-ylmethyl]-azetidin-3-yl}-4H-pyrido[2,3-b]pyrazin-3-one] | ≤ 0.016 µg/mL | –
23 | COc1ccc2ncc(=O)n(CCNCC[C@@H]3CN(c4ccc5c(c4)NC(=O)CS5)C(=O)O3)c2n1 [Example 20, 6-methoxy-4-(2-{2-[(R)-2-oxo-3-(3-oxo-3,4-dihydro-2H-benzo[1,4]thiazin-6-yl)-oxazolidin-5-yl]-ethylamino}-ethyl)-4H-pyrido[2,3-b]pyrazin-3-one] | ≤ 0.031 µg/mL | –
24 | COc1ccc2ncc(=O)n(C3CN(CC[C@H]4CN(c5ccc6c(c5)NC(=O)CS6)C(=O)O4)C3)c2n1 [Example 24, 6-methoxy-4-(1-{2-[(S)-2-oxo-3-(3-oxo-3,4-dihydro-2H-benzo[1,4]thiazin-6-yl)-oxazolidin-5-yl]-ethyl}-azetidin-3-yl)-4H-pyrido[2,3-b]pyrazin-3-one] | ≤ 0.031 µg/mL | –
25 | COc1ccc2ncc(=O)n(CCNCCC3CN(c4cc5c(cn4)OCCO5)C(=O)O3)c2n1 (racemic) [Example 31, rac-4-(2-{2-[3-(2,3-dihydro-[1,4]dioxino[2,3-c]pyridin-7-yl)-2-oxo-oxazolidin-5-yl]-ethylamino}-ethyl)-6-methoxy-4H-pyrido[2,3-b]pyrazin-3-one] | 1 µg/mL (≈ 2.13 µM) | –
26 | O=C1CSc2ccc(N3C[C@@H](CNCCCn4c(=O)ccc5ccc(Br)cc54)OC3=O)cc2N1 [Example 2] | – | <=0.031 mg/l
27 | COc1ccc2ncc(=O)n(CCCNC[C@@H]3CN(c4ccc5c(c4)NC(=O)CS5)C(=O)O3)c2n1 [Example 17, 6-methoxy-4-(3-{[(R)-2-oxo-3-(3-oxo-3,4-dihydro-2H-benzo[1,4]thiazin-6-yl)-oxazolidin-5-ylmethyl]-amino}-propyl)-4H-pyrido[2,3-b]pyrazin-3-one] | ≤ 0.031 µg/mL | –
28 | O=C(CCn1c(=O)ccc2ccc(Br)cc21)NC[C@@H]1CN(c2ccc3c(c2)NC(=O)CS3)C(=O)O1 [Example 9, 3-(7-bromo-2-oxo-2H-quinolin-1-yl)-N-[(R)-2-oxo-3-(3-oxo-3,4-dihydro-2H-benzo[1,4]thiazin-6-yl)-oxazolidin-5-ylmethyl]-propionamide] | ≤ 0.031 µg/mL | –
